According to ChEMBL document CHEMBL1201862, “PubChem BioAssay data set” (2004):
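Test compounds were applied to cells in 96-well plates for 48 hours at 5 doses. Here, GI50 denotes the concentration required for 50% inhibition of growth.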 The source made the active and inactive calls. No stated cut-off is given here; in the data, active = GI50 up to about 1.1 µM and inactive = higher.

What was measured:
Assay in all cases: DTP human tumour cell line panel, 48 h
M14 = tested on: M14
Malme-3M = tested on: Malme-3M
SK-MEL-2 = tested on: SK-MEL-2
OVCAR-8 = tested on: OVCAR-8
SW-620 = tested on: SW-620
MDA-MB-231 = tested on: MDA-MB-231
PC-3 = tested on: PC-3
COLO 205 = tested on: COLO 205
MDA-MB-435 = tested on: MDA-MB-435
KM12 = tested on: KM12
K562 = tested on: K562
LOX IMVI = tested on: LOX IMVI
U-251 = tested on: U-251
EKVX = tested on: EKVX
MDA-N = tested on: MDA-N
SNB-78 = tested on: SNB-78
KM-20L2 = tested on: KM-20L2
M19-MEL = tested on: M19-MEL
LXFL 529 = tested on: LXFL 529
DLD-1 = tested on: DLD-1

Row | SMILES | GI50 (M14) | GI50 (Malme-3M) | GI50 (SK-MEL-2) | GI50 (OVCAR-8) | GI50 (SW-620) | GI50 (MDA-MB-231) | GI50 (PC-3) | GI50 (COLO 205) | GI50 (MDA-MB-435) | GI50 (KM12) | GI50 (K562) | GI50 (LOX IMVI) | GI50 (U-251) | GI50 (EKVX) | GI50 (MDA-N) | GI50 (SNB-78) | GI50 (KM-20L2) | GI50 (M19-MEL) | GI50 (LXFL 529) | GI50 (DLD-1)
1 | Nc1nc(N)c2c(Cl)c(CNc3ccc(C(=O)NC(CC(=O)O)C(=O)O)cc3)ccc2n1 (stereo not drawn) | < 0.01 µM (active) | 17.7 µM (inactive) | > 100 µM (inactive) | < 0.01 µM (active) | < 0.01 µM (active) | > 100 µM (inactive) | 9.31 µM (inactive) | < 0.01 µM (active) | < 0.01 µM (active) | < 0.01 µM (active) | < 0.01 µM (active) | < 0.01 µM (active) | < 0.01 µM (active) | < 0.01 µM (active) | < 0.01 µM (active) |  |  |  |  | 
2 | COC(=O)c1s/c(=N\C(=S)N(C)C)n(-c2ccc(Cl)cc2)c1C(=O)OC | > 100 µM (inactive) | > 100 µM (inactive) | > 100 µM (inactive) | > 100 µM (inactive) | > 100 µM (inactive) |  |  | > 100 µM (inactive) |  | > 100 µM (inactive) | > 100 µM (inactive) | > 100 µM (inactive) | > 100 µM (inactive) | > 100 µM (inactive) |  | > 100 µM (inactive) | > 100 µM (inactive) | > 100 µM (inactive) |  | 
3 | C[N+](C)(C)C.FC(F)(F)C1(C(F)(F)F)O[SiH-]2(OC(C(F)(F)F)(C(F)(F)F)c3ccccc32)c2ccccc21 | 10 µM (inactive) | 19.5 µM (inactive) | 17.7 µM (inactive) | 15.3 µM (inactive) | 18 µM (inactive) |  |  | 20 µM (inactive) |  | 19.9 µM (inactive) | 5.87 µM (inactive) |  | 5.4 µM (inactive) | 14.2 µM (inactive) |  | 13.2 µM (inactive) | 5.24 µM (inactive) | 18.2 µM (inactive) | 12.6 µM (inactive) | 
4 | CC(C)(C)C1=CC(=N/N=c2\scc(-c3ccccc3)n2Cc2ccccc2)C=C(C(C)(C)C)C1=O | > 100 µM (inactive) | > 100 µM (inactive) | > 100 µM (inactive) | > 100 µM (inactive) | > 100 µM (inactive) |  |  | > 100 µM (inactive) |  |  | > 100 µM (inactive) | > 100 µM (inactive) | > 100 µM (inactive) | > 100 µM (inactive) |  |  | > 100 µM (inactive) | > 100 µM (inactive) | > 100 µM (inactive) | 
5 | CN/N=C(/Cc1occc(=O)c1O)C(=O)Nc1ccc(C)c(C)c1 | > 100 µM (inactive) | > 100 µM (inactive) | > 100 µM (inactive) | > 100 µM (inactive) | > 100 µM (inactive) |  |  | > 100 µM (inactive) |  | > 100 µM (inactive) | > 100 µM (inactive) | > 100 µM (inactive) | > 100 µM (inactive) | > 100 µM (inactive) |  | 60.1 µM (inactive) | > 100 µM (inactive) | > 100 µM (inactive) | > 100 µM (inactive) | 
6 | COC(=O)CC1CN(C(=O)OCc2ccccc2)C(C)(C)O1 (stereo not drawn) | > 100 µM (inactive) | 45.3 µM (inactive) | > 100 µM (inactive) | > 100 µM (inactive) | > 100 µM (inactive) | > 100 µM (inactive) | 62.7 µM (inactive) | > 100 µM (inactive) | > 100 µM (inactive) | 43.3 µM (inactive) | > 100 µM (inactive) | > 100 µM (inactive) | > 100 µM (inactive) | 35.2 µM (inactive) | > 100 µM (inactive) |  |  |  |  | 
7 | CN(C)CCNc1c2ccccc2c2c3c(cccc13)C(=O)N(CCN(C)C)C2=O |  | 0.348 µM (active) | 0.188 µM (active) | 0.129 µM (active) | 0.0532 µM (active) |  |  | 0.0755 µM (active) |  | 0.232 µM (active) | 0.0522 µM (active) | 0.071 µM (active) | 0.121 µM (active) | 0.332 µM (active) |  | 0.151 µM (active) | 0.103 µM (active) |  |  | 0.0578 µM (active)
8 | CC(=O)NCCC1CN(C(=O)/C=C\C#C[Si](C)(C)C)c2ccccc21 (stereo not drawn) | 13.3 µM (inactive) | 13.1 µM (inactive) | 14 µM (inactive) | 37.9 µM (inactive) | 35.2 µM (inactive) | 17.3 µM (inactive) | 27 µM (inactive) | 4.88 µM (inactive) | 21.2 µM (inactive) | 24.7 µM (inactive) | 15.3 µM (inactive) | 11.9 µM (inactive) | > 10 µM (inactive) | 14.8 µM (inactive) | 13.5 µM (inactive) |  |  |  |  | 
9 | CC1NC(=O)CC(c2ccccc2)N(N=O)C1c1ccccc1 (stereo not drawn) |  | 52.5 µM (inactive) | 39.5 µM (inactive) | 34 µM (inactive) | 20.6 µM (inactive) |  |  | 26.6 µM (inactive) |  | 56.1 µM (inactive) | 28 µM (inactive) | 37.9 µM (inactive) | 39.6 µM (inactive) | > 70.6 µM (inactive) |  | 35.4 µM (inactive) | 21.4 µM (inactive) | 55.7 µM (inactive) |  | 44.8 µM (inactive)
10 | N[C@@H]1c2c(Br)sc(Br)c2[C@H](O)[C@@H]1O | > 100 µM (inactive) | > 100 µM (inactive) | > 100 µM (inactive) | > 100 µM (inactive) | > 100 µM (inactive) | > 100 µM (inactive) | > 100 µM (inactive) | > 100 µM (inactive) | > 100 µM (inactive) | > 100 µM (inactive) | > 100 µM (inactive) | > 100 µM (inactive) | > 100 µM (inactive) | > 100 µM (inactive) | > 100 µM (inactive) |  |  |  |  | 
11 | CCOC(=O)c1nc2ccccc2nc1Oc1ccc(OC)cc1 | > 100 µM (inactive) | > 100 µM (inactive) | > 100 µM (inactive) | > 100 µM (inactive) | > 100 µM (inactive) | > 100 µM (inactive) | > 100 µM (inactive) | > 100 µM (inactive) | > 100 µM (inactive) | > 100 µM (inactive) | > 100 µM (inactive) | > 100 µM (inactive) | > 100 µM (inactive) | > 100 µM (inactive) | > 100 µM (inactive) |  |  |  |  | 
12 | Cc1ccc(S(=O)(=O)NCC2CCCCC2=O)cc1 (stereo not drawn) | > 100 µM (inactive) | > 100 µM (inactive) | > 100 µM (inactive) | > 100 µM (inactive) | > 100 µM (inactive) |  |  | > 100 µM (inactive) |  | > 100 µM (inactive) | 66.1 µM (inactive) | > 100 µM (inactive) | > 100 µM (inactive) | > 100 µM (inactive) |  | > 100 µM (inactive) | > 100 µM (inactive) | > 100 µM (inactive) | > 100 µM (inactive) | 
13 | CCOC(=O)/C(=C\c1ccnc2ccccc12)P(=O)(OCC)OCC | 1.93 µM (inactive) | 1.33 µM (inactive) | 2.06 µM (inactive) | 1.81 µM (inactive) | 2.52 µM (inactive) | 2.11 µM (inactive) | 5.53 µM (inactive) | 2.17 µM (inactive) | 2.75 µM (inactive) | 4.01 µM (inactive) | 5.89 µM (inactive) | 1.57 µM (inactive) | 2.9 µM (inactive) | 4.65 µM (inactive) | 2.3 µM (inactive) |  |  |  |  | 
